In ChEMBL document CHEMBL3797124, “Synthesis of azepino[4,5-b]indol-4-ones via MCR/free radical cyclization and in vitro-in silico studies as 5-Ht₆R ligands” (Bioorg Med Chem Lett, 2016) one finds inhibition, log(%) and Ki data, which are given here for 19 compounds.

Experiment [1] addresses 5-hydroxytryptamine receptor 6 (Rattus norvegicus) (UniProt P31388). Kind of experiment: Displacement of [3H]-LSD from rat 5-Ht6 receptor expressed in HEK cells at 10 uM after 60 mins by liquid scintillation counting. Type of experiment: cell-based. To be noted: HEK293. (In general: In a radioligand displacement assay an active substance lowers the binding of a labelled ligand.)

Experiment [2] deals with 5-hydroxytryptamine receptor 6 (Rattus norvegicus, UniProt P31388). The experiment in a line: Displacement of [3H]-LSD from rat 5-Ht6 receptor expressed in HEK cells after 60 mins by liquid scintillation counting. Type of experiment: cell-based, HEK293.
Sequence of 5-hydroxytryptamine receptor 6 (P31388 whole entry): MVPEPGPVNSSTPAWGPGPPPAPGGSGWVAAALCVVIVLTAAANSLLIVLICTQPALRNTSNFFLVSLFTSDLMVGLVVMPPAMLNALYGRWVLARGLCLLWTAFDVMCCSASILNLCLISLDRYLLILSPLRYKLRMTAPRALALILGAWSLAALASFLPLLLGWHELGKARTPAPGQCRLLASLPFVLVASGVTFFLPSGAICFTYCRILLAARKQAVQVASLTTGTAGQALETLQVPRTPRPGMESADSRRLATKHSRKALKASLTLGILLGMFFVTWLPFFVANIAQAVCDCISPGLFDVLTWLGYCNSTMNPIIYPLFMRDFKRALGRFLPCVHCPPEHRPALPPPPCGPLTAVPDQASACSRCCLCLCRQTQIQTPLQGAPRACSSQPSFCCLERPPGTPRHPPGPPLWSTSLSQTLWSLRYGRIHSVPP

Sequence of 5-hydroxytryptamine receptor 6 (Rattus norvegicus) (P31388 whole entry): as above

For `CC(C)(C)NC(=O)C(c1ccc2c(c1)OCO2)N1CCc2c([nH]c3ccccc23)CC1=O` (stereo not drawn), in experiment [1], the inhibition (commonly how much of the control response was suppressed) worked out at 7% and the log(%) was found to be 0.85.

`O=C(NC1CCCCC1)C(c1ccc(Cl)cc1)N1CCc2c([nH]c3ccccc23)CC1=O` (stereo not drawn): in experiment [1], the inhibition was 15% and the log(%) was 1.18.

In experiment [1], `Cc1cccc(C)c1-n1nnnc1C(c1ccc(Cl)cc1)N1CCc2c([nH]c3ccccc23)CC1=O` (stereo not drawn) displayed an inhibition of 19% and a log(%) of 1.28.

Take `O=C1Cc2[nH]c3ccccc3c2CCN1C(c1ccc(Cl)cc1)c1nnnn1C1CCCCC1` (stereo not drawn): in experiment [1], the inhibition was determined as 17% and the log(%) worked out at 1.23.

In experiment [1], `CC(C)(C)NC(=O)C(C1CCCCC1)N1CCc2c([nH]c3ccccc23)CC1=O` (stereo not drawn) gave an inhibition of 10% and a log(%) of 1.

In experiment [1], `CN(C)c1ccc(C(c2nnnn2C(C)(C)C)N2CCc3c([nH]c4ccccc34)CC2=O)cc1` (stereo not drawn) displayed an inhibition of 1% and a log(%) of 0.

In experiment [1], `Cc1cccc(C)c1NC(=O)C(c1ccc(Cl)cc1)N1CCc2c([nH]c3ccccc23)CC1=O` (stereo not drawn) displayed an inhibition of 21% and a log(%) of 1.32.

As for `Cc1cccc(C)c1NC(=O)C(C1CCCCC1)N1CCc2c([nH]c3ccccc23)CC1=O` (stereo not drawn), in experiment [1], the inhibition is 7% and the log(%) turned out to be 0.85.

As to `CC(C)(C)n1nnnc1C(c1ccc2c(c1)OCO2)N1CCc2c([nH]c3ccccc23)CC1=O` (stereo not drawn), in experiment [1], the inhibition worked out at 12% and the log(%) was 1.08.

Regarding `COc1cccc(C(c2nnnn2C(C)(C)C)N2CCc3c([nH]c4ccccc34)CC2=O)c1OC` (stereo not drawn), in experiment [1], the inhibition turned out to be 16% and the log(%) was determined as 1.2.

Take `CC(C)(C)NC(=O)C(c1ccc(Cl)cc1)N1CCc2c([nH]c3ccccc23)CC1=O` (stereo not drawn): in experiment [1], the inhibition was determined as 42% and the log(%) was 1.62.

The compound `COc1cccc(C(C(=O)NC(C)(C)C)N2CCc3c([nH]c4ccccc34)CC2=O)c1OC` (stereo not drawn) displayed a log(%) in experiment [1] of 1.98. Further, in experiment [2], affinity was put at a Ki of 211 nM.

For `CC(C)(C)n1nnnc1C(c1ccc(Cl)cc1)N1CCc2c([nH]c3ccccc23)CC1=O` (stereo not drawn), in experiment [1], the inhibition was 41% and the log(%) worked out at 1.04.

On to `CN(C)c1ccc(C(C(=O)NC(C)(C)C)N2CCc3c([nH]c4ccccc34)CC2=O)cc1` (stereo not drawn), for which, in experiment [1], the inhibition stood at 16% and the log(%) worked out at 1.2.

In experiment [1], `Cc1cccc(C)c1-n1nnnc1C(C1CCCCC1)N1CCc2c([nH]c3ccccc23)CC1=O` (stereo not drawn) came in with an inhibition of 3% and a log(%) of 0.48.

Take `CC(C)(C)n1nnnc1C(C1CCCCC1)N1CCc2c([nH]c3ccccc23)CC1=O` (stereo not drawn): in experiment [1], the inhibition was determined as 2% and the log(%) was 0.3.

For `CSc1ccc2c(c1)C(N1CCN(C)CC1)Cc1ccccc1S2` (stereo not drawn), in experiment [1], the inhibition worked out at 100% and the log(%) stood at 2.

`CC(C)(C)NC(=O)C(c1ccc(Br)cc1)N1CCc2c([nH]c3ccccc23)CC1=O` (stereo not drawn): in experiment [1], the inhibition came out at 66% and the log(%) is 1.82.

Consider `CC(C)(C)n1nnnc1C(c1ccc(Br)cc1)N1CCc2c([nH]c3ccccc23)CC1=O` (stereo not drawn), for which, in experiment [1], the inhibition amounted to 57% and the log(%) is 1.76.
